# Data from patent US8598183B2, “Solid state forms of a potent HCV inhibitor” (Boehringer Ingelheim International GmbH, priority 2010, dated 2013).
# Tests used:
# [1] = Powder dissolution of triturated mixtures in capsules in 500 mL pH 6.8 buffer; type: physicochemical; settings: for % Release, Average of n = 2 (range) / % Release, average / % Release / % Release, average (range): capsule; for % Release, average: 200 mg drug + Meglumine 100 mg; for % Release: 200 mg drug + Pluronic acid 100 mg, n = 1
# Excerpt: One class of solubilizer excipients, basifiers, act by increasing the microenvironment pH and thereby increasing the local solubility of the drug (for a drug containing an acid moiety). Another class of solubilizer excipients, surfactants, also act by increasing the local solubility of the drug. […] For example, an enhancement in dissolution was obtained when surfactants, for example, sodium lauryl sulfate or Vitamin E TPGS, were used in combination with basifiers, for example, L-arginine, meglumine or L-lysine. […] For example, only 1% drug release was obtained when Compound (1) sodium salt crystalline was present. The % drug release was 54% at 60 minutes in the presence of 100 mg Arginine alone and 59% in the presence of Sodium lauryl sulfate alone (Table 2). However, in presence of 100 mg of Arginine along with 100 mg of Sodium lauryl sulfate, the % drug release increased to 93% at 60 minutes (Table 3) indicating enhancement in dissolution when both surfactant and basifier were used in combination.
# [2] = Powder dissolution testing in pH 6.8 buffer, USP Type II Paddle apparatus; type: physicochemical; settings: 60 minutes, listed as crystalline Compound (1) sodium salt
# [3] = Water content at variable humidity (adsorption curve of VTI measurement); type: physicochemical; settings: 25° C.
# Procedure: Bruker D-8 Advance X-Ray Powder Diffractometer in parallel beam mode with a scintillation detector and using a variable temperature/humidity stage. Humidity adjusted and equilibrated at 25° C., scans from 2-35° 2-theta, 0.05° 2-theta step size, 4 seconds/step At higher humidity (50% RH, and 85% RH) the diffraction lines in the resulting patterns are shifted consistent with lattice expansion to accommodate more water in the lattice. The amount of water at 50% RH based on the adsorption curve of the VTI measurement is 1.7%, and the amount of water at 85% RH is 4.5%. When the sample is exposed to ambient conditions after high humidity the resulting diffraction pattern is again consistent with that of the starting material.
# [4] = Storage stability of concentrated supersaturated aqueous solutions; type: physicochemical; settings: 10 month storage at room temperature
# Procedure: This unique behavior of high solubility at high drug concentrations is most likely attributable to tendency of the drug substance to self-micellize. A CMC value of 41.4 mM (corresponding to 28 mg/mL) is estimated.
# HCV infection = assay: Human clinical trials in HCV-infected patients; type: in vivo
structure (smiles),measurement,setting,value
Cn1c(C2(NC(=O)c3ccc4c(C5CCCC5)c(-c5ncc(Br)cn5)n(C)c4c3)CCC2)nc2ccc(/C=C/C(=O)[O-])cc21.[Na+] [Compound (1) sodium salt],"% Release, Average of n = 2 (range)","[1]; 200 mg drug + Lysine + VitE TPGS (100 mg + 100 mg), 15 min",42 (29-55) %
same,"% Release, Average of n = 2 (range)","[1]; 200 mg drug + Lysine + VitE TPGS (100 mg + 100 mg), 30 min",79 (77-81) %
same,"% Release, Average of n = 2 (range)","[1]; 200 mg drug + Lysine + VitE TPGS (100 mg + 100 mg), 60 min",83 (82-83) %
same,"% Release, Average of n = 2 (range)","[1]; 200 mg drug + Lysine + VitE TPGS (100 mg + 100 mg), 90 min",81 (81-82) %
same,"% Release, average","[1]; 90 (infinity), n = 2",49%
same,"% Release, average","[1]; 15 min, n = 2",47%
same,"% Release, average","[1]; 30 min, n = 2",48%
same,"% Release, average","[1]; 60 min, n = 2",48%
same,"% Release, Average of n = 2 (range)","[1]; 200 mg drug + Meglumine + SDS (40 mg + 20 mg), 15 min",66 (61-71) %
same,"% Release, Average of n = 2 (range)","[1]; 200 mg drug + Meglumine + SDS (40 mg + 20 mg), 30 min",73 (71-75) %
same,"% Release, Average of n = 2 (range)","[1]; 200 mg drug + Meglumine + SDS (40 mg + 20 mg), 60 min",70 (69-71) %
same,"% Release, Average of n = 2 (range)","[1]; 200 mg drug + Meglumine + SDS (40 mg + 20 mg), 90 min",68 (67-69) %
same,"% Release, Average of n = 2 (range)","[1]; 200 mg drug + Meglumine + SDS (100 mg + 100 mg), 15 min",81 (79-83) %
same,"% Release, Average of n = 2 (range)","[1]; 200 mg drug + Meglumine + SDS (100 mg + 100 mg), 30 min",87 (86-88) %
same,"% Release, Average of n = 2 (range)","[1]; 200 mg drug + Meglumine + SDS (100 mg + 100 mg), 60 min",83 (80-87) %
same,"% Release, Average of n = 2 (range)","[1]; 200 mg drug + Meglumine + SDS (100 mg + 100 mg), 90 min",86 (85-87) %
same,"% Release, Average of n = 2 (range)","[1]; 200 mg drug + Meglumine + VitE TPGS (40 mg + 20 mg), 15 min",52 (33-70) %
same,"% Release, Average of n = 2 (range)","[1]; 200 mg drug + Meglumine + VitE TPGS (40 mg + 20 mg), 30 min",73 (73-73) %
same,"% Release, Average of n = 2 (range)","[1]; 200 mg drug + Meglumine + VitE TPGS (40 mg + 20 mg), 60 min",73 (73-74) %
same,"% Release, Average of n = 2 (range)","[1]; 200 mg drug + Meglumine + VitE TPGS (40 mg + 20 mg), 90 min",71 (70-72) %
same,"% Release, Average of n = 2 (range)","[1]; 200 mg drug + Meglumine + VitE TPGS (100 mg + 100 mg), 15 min",81 (81-81) %
same,"% Release, Average of n = 2 (range)","[1]; 200 mg drug + Meglumine + VitE TPGS (100 mg + 100 mg), 30 min",85 (84-86) %
same,"% Release, Average of n = 2 (range)","[1]; 200 mg drug + Meglumine + VitE TPGS (100 mg + 100 mg), 60 min",86 (84-87) %
same,"% Release, Average of n = 2 (range)","[1]; 200 mg drug + Meglumine + VitE TPGS (100 mg + 100 mg), 90 min",82 (80-84) %
same,% Release,[1]; 90 (infinity),13%
same,% Release,[1]; 15 min,3%
same,% Release,[1]; 30 min,12%
same,% Release,[1]; 60 min,12%
same,"% Release, average (range)","[1]; 200 mg drug + SDS 100 mg, 90 (infinity), n = 2",49 (45-53) %
same,"% Release, average (range)","[1]; 200 mg drug + SDS 100 mg, 15 min, n = 2",57 (56-57) %
same,"% Release, average (range)","[1]; 200 mg drug + SDS 100 mg, 30 min, n = 2",61 (60-63) %
same,"% Release, average (range)","[1]; 200 mg drug + SDS 100 mg, 60 min, n = 2, listed as Compound (1) Na Salt",59 (58-60) %
same,"% Release, average (range)","[1]; 200 mg drug + SDS 100 mg, 60 min, n = 2, listed as Compound (1) sodium salt crystalline",59%
same,"% Release, average (range)","[1]; 200 mg drug + Tris 100 mg, 90 (infinity), n = 3",41 (33-46) %
same,"% Release, average (range)","[1]; 200 mg drug + Tris 100 mg, 15 min, n = 3",40 (34-43) %
same,"% Release, average (range)","[1]; 200 mg drug + Tris 100 mg, 60 min, n = 3",44 (35-48) %
same,"% Release, average (range)","[1]; 200 mg drug + Vit E TPGS 100 mg, 90 (infinity), n = 2",27 (27-27) %
same,"% Release, average (range)","[1]; 200 mg drug + Vit E TPGS 100 mg, 15 min, n = 2",24 (24-24) %
same,"% Release, average (range)","[1]; 200 mg drug + Vit E TPGS 100 mg, 30 min, n = 2",27 (27-27) %
same,"% Release, average (range)","[1]; 200 mg drug + Vit E TPGS 100 mg, 60 min, n = 2",27 (27-27) %
same,"% Release, average (range)","[1]; Drug alone 200 mg, 90 (infinity), n = 2",1 (1-2) %
same,"% Release, average (range)","[1]; Drug alone 200 mg, 15 min, n = 2",1 (1-1) %
same,"% Release, average (range)","[1]; Drug alone 200 mg, 30 min, n = 2",1 (1-1) %
same,"% Release, average (range)","[1]; Drug alone 200 mg, 60 min, n = 2",1 (1-2) %
same,% drug release,"[1]; drug alone, no basifier or surfactant, time not stated",1%
same,% dissolved (kinetic dissolution),[2],< 5%
same,amount of water,[3]; 50% RH,1.7%
same,amount of water,[3]; 85% RH,4.5%
same,precipitation of highly concentrated supersaturated solutions,[4],no precipitation observed
same,effectiveness in treating HCV-infected patients,HCV infection,demonstrated effectiveness
